What was measured:
mRBCs [1] = experiment: Binding/loading of Glu-Insulin to mouse RBCs (confocal, flow cytometry, ELISA); settings: incubated overnight, confocal fluorescence microscopy
Protocol: Preparation of insulin loaded RBCs. Whole blood was collected from the B16 mice or from a human volunteer (The study protocol was approved by the Institutional Review Board at North Carolina State University). RBCs were separated from the whole blood by centrifugation (1000 g, 10 min) and washed thrice with cold PBS (300 mOsm, pH=8.0) to remove the glucose intracellularly. To load the insulin to RBC membrane, Glu-Insulin (0.5 mg/ml) was incubated with […] RBCs (1×10^8) under gentle stirring at 4° C. overnight. RBCs were washed thrice with cold PBS (300 mOsm, pH 8) to remove the unconjugated Glu-Insulin. Bound insulin was determined by ELISA assay.

GLUT1 = biological target: T1, GLUT1 (Rattus norvegicus, UniProt P11167); experiment: Binding of free GLUT1 protein and Glu-Insulin in vitro (centrifugal filter); settings: overnight incubation, MWCO=10 kDa filter
T1 construct: His6 (pET-28a vector-encoded) (N); T7 tag (pET-28a vector-encoded, upstream of BamHI site) (N); made in house; host or cells: E. coli Rosetta (DE3) pLysS
T1 sequence (P11167 1-492): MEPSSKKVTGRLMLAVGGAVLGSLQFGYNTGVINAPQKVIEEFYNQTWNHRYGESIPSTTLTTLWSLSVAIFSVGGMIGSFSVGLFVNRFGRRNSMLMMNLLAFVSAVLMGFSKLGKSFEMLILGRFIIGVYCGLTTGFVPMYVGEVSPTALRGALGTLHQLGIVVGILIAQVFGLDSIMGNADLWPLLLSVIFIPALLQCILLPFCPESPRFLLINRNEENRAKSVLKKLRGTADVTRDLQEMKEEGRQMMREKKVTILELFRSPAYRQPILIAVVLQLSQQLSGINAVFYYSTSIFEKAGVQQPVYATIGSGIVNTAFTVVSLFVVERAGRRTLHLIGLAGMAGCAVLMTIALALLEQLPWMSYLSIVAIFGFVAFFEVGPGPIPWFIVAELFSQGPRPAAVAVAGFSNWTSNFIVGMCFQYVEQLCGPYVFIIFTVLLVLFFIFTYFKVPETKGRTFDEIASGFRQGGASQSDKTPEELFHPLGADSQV
Protocol: Glucose modified insulin was mixed with GLUT1 protein at a molar ratio of 1.2:1 for 12 hours at 4° C. Free Glu-insulin were removed by the centrifugal filter device (MWCO=10 kDa). The obtained Glu-Insulin was stored at 4° C. until use. We first examined the specific binding affinity of free GLUT1 proteins and Glu-Insulin in vitro. We incubated the GLUT1 with Glu-Insulin overnight, free Glu-Insulin was removed by centrifugal filter device (MWCO=10 kDa).

mRBCs [2] = system: mRBCs
Protocol: The mRBCs were incubated with Glu-Insulin overnight and imaged using the confocal fluorescence microscope to determine whether Glu-Insulin can bind to mRBCs via the specific glucose-GLUT binding.

[3] = system: STZ-induced type 1 diabetic mice; experiment: In vivo bioactivity comparison of native insulin and Glu-Insulin; settings: same insulin concentration 5 mg/kg
Description: Glucose was conjugated to insulin via a bifunctional maleimide linker (FIG. 2). Glu-Insulin was clearly identified by the sodium dodecyl sulfate polyacrylamide gel electrophoresis (SDS-PAGE) and matrix-assisted laser desorption/ionization mass spectrometry (MALDI MS) (FIG. 3A-B). As calculated by MALDI-MS, two glucose molecules are conjugated to each insulin molecule (feed molar ratio of glucose to insulin: 100:1). […] In short, the modification of insulin with glucose has a statistically insignificant impact on bioactivity relative to unmodified insulin.

[4] = system: STZ-induced diabetic mice; experiment: Intraperitoneal glucose tolerance test (IPGTT) 1.5 h after administration; format: in vivo; settings: IPGTT 1.5 hours after i.v. administration
Protocol: In Vivo Studies Using STZ-Induced Diabetic Mice. STZ-induced male C57B6 diabetic mice were purchased from Jackson Labs (USA) and used under protocols approved by the Institutional Animal Care and Use Committee at North Carolina State University. For in vivo circulating behavior of insulin-RBC, mRBCs were coupled with FITC after loading with insulin, 3 mice were injected i.v. with autologous insulin−mRBCs. Then ˜3 μL of blood was extracted from the tail vein at different time points and then dispersed in 0.5 mL of PBS with anticoagulants. Flow cytometry measurement was applied to determine the percentages of insulin−mRBCs (positive in FITC) in the blood samples. […] The BG level was measured from tail vein blood samples (approximately 3 μL) of mice using the Clarity GL2Plus glucose meter (Clarity Diagnostics) at different time points. […] Plasma insulin concentrations were determined using the human insulin ELISA kit (Calbiotech, USA). […] To quantitate the glucose response to the various insulin formulations (Yu J, et al. Proc. Natl. Acad. Sci. U.S.A. 112, 8260-8265 (2015); Chou DH-C, et al. Proc. Natl. Acad. Sci. U.S.A. 112, 2401-2406 (2015)), the area under the curve was calculated for each group between 90 and 200 min. […] Furthermore, plasma insulin levels of diabetic mice were monitored over time by ELISA after IPGTT (FIG. 8D).

[5] = system: STZ-induced diabetic mice; experiment: Blood glucose levels in STZ-induced diabetic mice after treatment; format: in vivo; settings: i.v., 5 mg/kg insulin
Protocol: In Vivo Studies Using STZ-Induced Diabetic Mice. STZ-induced male C57B6 diabetic mice were purchased from Jackson Labs (USA) and used under protocols approved by the Institutional Animal Care and Use Committee at North Carolina State University. For in vivo circulating behavior of insulin-RBC, mRBCs were coupled with FITC after loading with insulin, 3 mice were injected i.v. with autologous insulin−mRBCs. Then ˜3 μL of blood was extracted from the tail vein at different time points and then dispersed in 0.5 mL of PBS with anticoagulants. Flow cytometry measurement was applied to determine the percentages of insulin−mRBCs (positive in FITC) in the blood samples. […] The BG level was measured from tail vein blood samples (approximately 3 μL) of mice using the Clarity GL2Plus glucose meter (Clarity Diagnostics) at different time points. […] Plasma insulin concentrations were determined using the human insulin ELISA kit (Calbiotech, USA). The efficacy of insulin−mRBCs for treatment of hyperglycemia in STZ-induced type 1 diabetic mice (Like, A A, et al. Science 193, 415-417 (1976)) was also assessed. […] The BG levels of treated mice were then monitored over time.

healthy mice = experiment: Hypoglycemia study in healthy mice under normoglycemic conditions; settings: mouse, in vivo
Protocol: FIG. 8F is a bar graph showing the quantification of the hypoglycemia index, calculated from the difference between the initial and nadir BG readings divided by the time at which nadir was reached. The error bars are based on the SD of five mice per group. (P values: *P<0.05) Next, the potential for insulin−mRBCs to induce hypoglycemia was studied in healthy mice under normoglycemic conditions (FIG. 8E). […] The corresponding hypoglycemia index was calculated to assess the risk of hypoglycemia (Yu J, et al. Proc. Natl. Acad. Sci. U.S.A. 112, 8260-8265 (2015); Chou DH-C, et al. Proc. Natl. Acad. Sci. U.S.A. 112, 2401-2406 (2015)).

In the case of “Glu-Insulin: human recombinant insulin conjugated to two glucose (glucosamine) molecules via a bifunctional maleimide (Sulfo-SMCC/thiol) linker”, the “binding of Glu-Insulin to mRBCs” value (mRBCs [1]) is reported as “bound to the mRBCs”, the “binding of Glu-Insulin to free GLUT1 protein” value (GLUT1) is reported as “insulin signals could be detected in supernatant if co-incubated with GLUT1 proteins” and the “damage to mRBCs by insulin binding (annexin V)” value (mRBCs [2]) is reported as “does not cause significant damage to mRBCs”. For the same substance, the “bioactivity profile relative to native insulin” value [3] was “do not display any significant difference in their bioactivity profiles”, the “BG response after IPGTT” value [4] was “only exhibited a fleeting response” and the “BG level recovered within 24 h” value [5] was roughly 500 mg/dL. The “BG level within 1 h” value [5] was less than 70 mg/dL and the “BG levels in healthy mice” value (healthy mice) was “significantly decreased BG levels compared to insulin−mRBCs treated mice”.

Source: US11896673B2, “Glucose responsive insulin delivery compositions and methods” (NORTH CAROLINA STATE UNIVERSITY, priority 2016, dated 2024)
